The source made the active and inactive calls. The calls are words filed in the database; no cut-off is given here.
Columns and labels:
Rattus norvegicus [1] = organism: Rattus norvegicus; test: Postsynaptic agonistic activity using motor activity test in reserpinized rats per 30 min; type: functional
Rattus norvegicus [2] = organism: Rattus norvegicus; test: Dose required for postsynaptic agonism using motor activity test in reserpinized rats; type: functional
Rattus norvegicus [3] = organism: Rattus norvegicus; test: Compound was evaluated for postsynaptic agonistic activity using motor activity test in reserpinized rats per 30 min; ns= Not significant; type: functional
[4] = molecular target: T1, Dopamine receptor (Rattus norvegicus) (UniProt P25115+P19020+P30729+P18901+P61169); test: Compound was tested for presynaptic agonistic activity against dopamine receptor in limbic system; I= Inactive; type: functional, tissue-based
[5] = molecular target: T1, Dopamine receptor (Rattus norvegicus); test: Compound was tested or presynaptic agonistic activity against dopamine receptor in striatum; I= Inactive; type: functional, tissue-based
[6] = molecular target: T1, Dopamine receptor (Rattus norvegicus); test: Compound was tested or presynaptic agonistic activity against dopamine receptor in striatum; Inactive; type: functional, tissue-based
[7] = molecular target: T1, Dopamine receptor (Rattus norvegicus); test: Compound was tested for presynaptic agonistic activity against dopamine receptor in limbic system; Inactive; type: functional, tissue-based
Rattus norvegicus [8] = test: Dose required for postsynaptic agonism using motor activity test in reserpinized rats; I= Inactive at 2 umol/kg; type: functional, organism-based

CCCN1CCC[C@@H](c2cccc(O)c2)C1 [PRECLAMOL]
Acc. counts (Rattus norvegicus [1]): 12
Dose (Rattus norvegicus [2]): 213 µM/kg

CN1CCCC2c3cc(O)ccc3CCC21 (configuration not stated)
Acc. counts (Rattus norvegicus [1]): 60
Dose (Rattus norvegicus [2]): 106 µM/kg

CCCN(C)C1CCc2c(O)cccc2C1 (configuration not stated)
Acc. counts (Rattus norvegicus [1]): 239
Dose (Rattus norvegicus [2]): 2 µM/kg

CN1CCCC2c3cccc(O)c3CCC21 (configuration not stated)
Acc. counts (Rattus norvegicus [1]): 40
Dose (Rattus norvegicus [2]): 100 µM/kg

CNC1CCc2c(O)cccc2C1 (configuration not stated)
Acc. counts (Rattus norvegicus [3]): 18
Dose (Rattus norvegicus [2]): 100 µM/kg

CCCN(CCC)[C@@H]1Cc2cccc(O)c2C[C@H]1C
Acc. counts (Rattus norvegicus [1]): 155
Dose (Rattus norvegicus [2]): 0.31 µM/kg

CCCN(CCC)[C@@H]1CCc2ccc(O)cc2C1
Acc. counts (Rattus norvegicus [1]): 46
Dose (Rattus norvegicus [2]): 0.31 µM/kg

CCCN1CCC[C@H](c2cccc(O)c2)C1
Acc. counts (Rattus norvegicus [1]): 78
Dose (Rattus norvegicus [2]): 13 µM/kg

CN1CCc2cccc3c2[C@H]1Cc1ccc(O)c(O)c1-3 [APOMORPHINE]
Acc. counts (Rattus norvegicus [1]): 361
Dose (Rattus norvegicus [2]): 2.3 µM/kg

CCCN1CCC[C@@H](c2ccc(O)c(O)c2)C1
Acc. counts (Rattus norvegicus [1]): 24
Dose (Rattus norvegicus [2]): 50 µM/kg

Oc1cccc2c1CC[C@@H]1NCCC[C@@H]21
Acc. counts (Rattus norvegicus [3]): 10
Dose (Rattus norvegicus [2]): 106 µM/kg

CCCN1CCC[C@H]2c3cccc(O)c3CC[C@@H]21
Acc. counts (Rattus norvegicus [1]): 62
Dose (Rattus norvegicus [2]): 1.3 µM/kg

Oc1ccc2c(c1)C1CCCNC1CC2 (configuration not stated)
Acc. counts (Rattus norvegicus [3]): 10
Dose (Rattus norvegicus [2]): 106 µM/kg

Oc1cccc2c1CCC(N1CCCCC1)C2 (configuration not stated)
ED50 [4]: inactive
ED50 [5]: inactive

CCCCNC1CCc2c(O)cccc2C1 (configuration not stated)
ED50 [6]: inactive
ED50 [7]: inactive
Dose (Rattus norvegicus [8]): inactive

CN(C)C1CCc2c(O)cccc2C1 (configuration not stated)
Acc. counts (Rattus norvegicus [1]): 52
Dose (Rattus norvegicus [2]): 100 µM/kg

CCNC1CCc2c(O)cccc2C1 (configuration not stated)
Acc. counts (Rattus norvegicus [1]): 181
Dose (Rattus norvegicus [2]): 2 µM/kg

CCCN1CCC[C@@H]2c3cc(O)ccc3CC[C@H]21
Acc. counts (Rattus norvegicus [1]): 155
Dose (Rattus norvegicus [2]): 1.06 µM/kg
